What was measured:
[1] = Selectivity index, ratio of CC50 for cytotoxicity against HEK293 cells to IC50 for cytotoxicity against mouse B16-F10 cells; format: toxicity, cell-based; conditions: human, HEK293 cells and B16-F10 cells; read-out: Ratio CC50/IC50
HeLa = assay: Cytotoxicity against human HeLa cells assessed as inhibition of cell growth by MTT assay; format: functional, cell-based
[2] = Selectivity index, ratio of CC50 for cytotoxicity against HEK293 cells to IC50 for cytotoxicity against human MCF7 cells; format: toxicity, cell-based; conditions: HEK293 cells and MCF7 cells, read-out: Ratio CC50/IC50
Histone deacetylase 3 = Histone deacetylase 3 (Homo sapiens, UniProt O15379); assay: Inhibition of HDAC3 (unknown origin)
Chain of Histone deacetylase 3 (O15379 whole entry): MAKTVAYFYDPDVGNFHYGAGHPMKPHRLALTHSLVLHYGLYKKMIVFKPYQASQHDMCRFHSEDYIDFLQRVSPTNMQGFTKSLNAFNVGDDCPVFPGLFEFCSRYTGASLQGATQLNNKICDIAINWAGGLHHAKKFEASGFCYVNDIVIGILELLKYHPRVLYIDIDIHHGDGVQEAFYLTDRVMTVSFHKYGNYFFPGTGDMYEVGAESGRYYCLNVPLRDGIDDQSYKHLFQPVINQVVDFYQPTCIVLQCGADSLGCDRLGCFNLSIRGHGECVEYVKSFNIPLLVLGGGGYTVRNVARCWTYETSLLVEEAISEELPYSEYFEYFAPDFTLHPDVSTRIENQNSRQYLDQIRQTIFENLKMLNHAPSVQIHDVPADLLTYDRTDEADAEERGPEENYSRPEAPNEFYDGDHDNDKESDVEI

B16-F10 = assay: Cytotoxicity against mouse B16-F10 cells assessed as inhibition of cell growth by MTT assay; format: functional, cell-based
Jurkat E6.1 = assay: Cytotoxicity against human Jurkat E6.1 cells assessed as inhibition of cell growth by MTT assay; format: functional, cell-based
A549 = assay: Cytotoxicity against human A549 cells assessed as inhibition of cell growth by MTT assay; format: functional, cell-based
[3] = Selectivity index, ratio of CC50 for cytotoxicity against HEK293 cells to IC50 for cytotoxicity against human A549 cells; format: toxicity, cell-based; conditions: HEK293 cells and A549 cells, read-out: Ratio CC50/IC50
MCF7 [4] = assay: Cytotoxicity against human MCF7 cells assessed as inhibition of cell growth by MTT assay; format: functional, cell-based
[5] = Cytotoxicity against HEK293 cells by MTT assay; format: toxicity, cell-based; conditions: human
[6] = Selectivity index, ratio of CC50 for cytotoxicity against HEK293 cells to IC50 for cytotoxicity against human Jurkat E6.1 cells; format: toxicity, cell-based; conditions: HEK293 cells and Jurkat E6.1 cells, read-out: Ratio CC50/IC50
[7] = Selectivity index, ratio of CC50 for cytotoxicity against HEK293 cells to IC50 for cytotoxicity against human HeLa cells; format: toxicity, cell-based; conditions: HEK293 cells and HeLa cells, read-out: Ratio CC50/IC50
Kasumi 1 = assay: Cytotoxicity against human Kasumi 1 cells assessed as inhibition of cell growth by MTT assay; format: functional, cell-based
NB-4 = assay: Cytotoxicity against human NB-4 cells assessed as inhibition of cell growth by MTT assay; format: functional, cell-based
Histone deacetylase 2 = Histone deacetylase 2 (Homo sapiens, UniProt Q92769); assay: Inhibition of HDAC2 (unknown origin)
Chain of Histone deacetylase 2 (Q92769 whole entry): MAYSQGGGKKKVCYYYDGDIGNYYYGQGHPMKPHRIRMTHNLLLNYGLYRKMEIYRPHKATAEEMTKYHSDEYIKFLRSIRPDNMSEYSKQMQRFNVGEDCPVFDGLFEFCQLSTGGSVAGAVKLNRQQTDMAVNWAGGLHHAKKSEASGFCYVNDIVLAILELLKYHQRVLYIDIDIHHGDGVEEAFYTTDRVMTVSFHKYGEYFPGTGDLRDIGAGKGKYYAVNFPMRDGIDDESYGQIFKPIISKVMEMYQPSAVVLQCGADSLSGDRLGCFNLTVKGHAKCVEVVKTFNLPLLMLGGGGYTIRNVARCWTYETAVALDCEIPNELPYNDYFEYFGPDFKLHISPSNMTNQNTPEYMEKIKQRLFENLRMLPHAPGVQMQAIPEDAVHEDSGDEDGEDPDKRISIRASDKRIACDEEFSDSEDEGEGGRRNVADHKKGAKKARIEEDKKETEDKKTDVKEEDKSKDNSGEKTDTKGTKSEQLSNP

PC-3 [8] = assay: Cytotoxicity against human PC-3 cells assessed as inhibition of cell growth by MTT assay; format: functional, cell-based
PC-3 [9] = assay: Potency index, ratio of vorinostat IC50 to test compound IC50 for cytotoxicity against human PC-3 cells assessed as inhibition of cell growth by MTT assay; format: functional
ASPC1 = assay: Potency index, ratio of vorinostat IC50 to test compound IC50 for cytotoxicity against human ASPC1 cells assessed as inhibition of cell growth by MTT assay; format: functional
SW-620 [10] = assay: Cytotoxicity against human SW620 cells assessed as inhibition of cell growth by MTT assay; format: functional, cell-based
SW-620 [11] = assay: Potency index, ratio of vorinostat IC50 to test compound IC50 for cytotoxicity against human SW620 cells assessed as inhibition of cell growth by MTT assay; format: functional
HT-29 [12] = assay: Antitumor activity against human HT-29 cells xenografted in mouse assessed as tumor growth inhibition at 25 mg/kg, po relative to control; format: functional; conditions: read-out: TGI
HT-29 [13] = assay: Antitumor activity against human HT-29 cells xenografted in mouse assessed as tumor growth inhibition at 50 mg/kg, po relative to control; format: functional; conditions: read-out: TGI
HT-29 [14] = assay: Antitumor activity against human HT-29 cells xenografted in mouse assessed as tumor growth inhibition at 100 mg/kg, po relative to control; format: functional; conditions: read-out: TGI
HCT-116 = assay: Cytotoxicity against human HCT-116 cells assessed as inhibition of cell growth measured after 24 hrs by MTT assay; format: functional, cell-based; conditions: HCT-116, 24 h
MCF7 [15] = assay: Cytotoxicity against human MCF7 cells assessed as inhibition of cell growth measured after 24 hrs by MTT assay; format: functional, cell-based; conditions: MCF7, 24 h
Ehrlich = assay: Antitumor activity against mouse EAC cells implanted in mouse assessed as survival rate at 125 mg/kg, ip administered for 10 days; format: functional; conditions: 240 h, time 10 day
MDA-MB-231 = assay: Cytotoxicity against human MDA-MB-231 cells assessed as inhibition of cell growth measured after 24 hrs by MTT assay; format: functional, cell-based; conditions: MDA-MB-231, 24 h

With O=C(CCCN1CCN(C(=O)Nc2cccc3ncccc23)CC1)NO the selectivity ratio [1] was greater than 8.7, the IC50 (HeLa) was 7.19 µM and the selectivity ratio [2] was greater than 8.7. The IC50 (Histone deacetylase 3) was 0.00442 µM, the IC50 (B16-F10) was 7.19 µM and the IC50 (Jurkat E6.1) was 7.19 µM. It also gave an IC50 (A549) of 7.19 µM, a selectivity ratio [3] greater than 8.7 and an IC50 (MCF7 [4]) of 7.19 µM. The CC50 [5] was greater than 100 µM, the selectivity ratio [6] was greater than 8.7 and the selectivity ratio [7] was greater than 8.7.

Work on Cn1c(CCCCCCC(=O)NO)nc2cc(N(CCCl)CCCl)ccc21 [TINOSTAMUSTINE] yielded an IC50 (Kasumi 1) of 0.82 µM and an IC50 (NB-4) of 0.9 µM.

With Cc1ccc2c(c1)/C(=N\O)C(=O)N2CCCC(=O)NO the IC50 (Histone deacetylase 2) was 0.91 µM, the IC50 (PC-3 [8]) was 0.49 µM and the “Ratio IC50” value (PC-3 [9]) was 4.3. The “Ratio IC50” value (ASPC1) was 4.3, the IC50 (SW-620 [10]) was 0.49 µM and the “Ratio IC50” value (SW-620 [11]) was 4.3.

Work on C[C@H](NC(=O)c1nc(-c2ncc(-c3ccccc3)s2)sc1C1CC1)c1ccc(C(=O)NO)cc1 yielded an inhibition in vivo at 25 mg/kg (HT-29 [12]) of 39.4%, an inhibition in vivo at 50 mg/kg (HT-29 [13]) of 40.7% and an inhibition in vivo at 100 mg/kg (HT-29 [14]) of 62.5%.

With Nn1c(SCCC(=O)NO)nnc1-c1cccnc1 the IC50 (HCT-116) was 10.4 µM, the IC50 (MCF7 [15]) was 10.4 µM and the survival at 125 mg/kg (Ehrlich) was 205%. It also gave an IC50 (MDA-MB-231) of 10.4 µM.

From ChEMBL document CHEMBL5230103, “Hydroxamic acid hybrids as the potential anticancer agents: An Overview” (Eur J Med Chem, 2020)
